Results on one compound are retold here after PMC5218480 (PLoS ONE, 2017).

For this assay, the system named is MV-4-11 cells. Briefly: Gene expression microarray analysis (Affymetrix PrimeView) and GSEA. In kind it is cell-based, human. On the set-up: RFU PODN (11730768_x_at) / Fold change /veh PODN (11730768_x_at) / RFU LINC00158 (11744669_a_at) / Fold change /veh LINC00158 (11744669_a_at) / RFU DUSP10 (11751237_a_at) / Fold change /veh DUSP10 (11751237_a_at) / RFU ID3 (11757404_x_at) / Fold change /veh ID3 (11757404_x_at) / RFU PLEKHG5 (11737974_s_at) / Fold change /veh PLEKHG5 (11737974_s_at) / RFU LRRC4B (11730491_at) / Fold change /veh LRRC4B (11730491_at) / RFU GIMAP4 (11747438_a_at) / Fold change /veh GIMAP4 (11747438_a_at) / RFU KRT8 (11758183_x_at) / Fold change /veh KRT8 (11758183_x_at) / RFU CNN1 (11734310_a_at) / Fold change /veh CNN1 (11734310_a_at) / RFU VPS37D (11726825_at) / Fold change /veh VPS37D (11726825_at) / RFU C10orf10 (11716522_x_at) / Fold change /veh C10orf10 (11716522_x_at) / RFU KIR2DL2 /// KIR2DL4 /// KIR2DL5A /// KIR2DL5B /// KIR2DS1 /// KIR2DS2 /// KIR2DS3 /// KIR2DS4 /// KIR3DL3 /// KIR3DL3 /// KIR3DS1 (11738374_at) / Fold change /veh KIR2DL2 /// KIR2DL4 /// KIR2DL5A /// KIR2DL5B /// KIR2DS1 /// KIR2DS2 /// KIR2DS3 /// KIR2DS4 /// KIR3DL3 /// KIR3DL3 /// KIR3DS1 (11738374_at) / RFU C1QL1 (11718748_at) / Fold change /veh C1QL1 (11718748_at) / RFU TMPRSS4 (11747572_a_at) / Fold change /veh TMPRSS4 (11747572_a_at) / RFU HAMP (11756126_x_at) / Fold change /veh HAMP (11756126_x_at) / RFU RNFT2 (11725882_a_at) / Fold change /veh RNFT2 (11725882_a_at) / RFU NR4A2 (11747474_a_at) / Fold change /veh NR4A2 (11747474_a_at) / RFU ABCC12 (11746883_a_at) / Fold change /veh ABCC12 (11746883_a_at) / RFU TMEM136 (11760407_x_at) / Fold change /veh TMEM136 (11760407_x_at) / RFU CLDN22 /// WWC2 (11732394_at) / Fold change /veh CLDN22 /// WWC2 (11732394_at) / RFU HLA-DPB1 (11760878_x_at) / Fold change /veh HLA-DPB1 (11760878_x_at) / RFU SPINT1 (11716480_a_at) / Fold change /veh SPINT1 (11716480_a_at) / RFU GAP43 (11754022_s_at) / Fold change /veh GAP43 (11754022_s_at) / RFU A4GNT (11735810_at) / Fold change /veh A4GNT (11735810_at) / RFU PRB3 (11715151_x_at) / Fold change /veh PRB3 (11715151_x_at) / RFU TUBB4B (11761932_at) / Fold change /veh TUBB4B (11761932_at) / RFU CAPN14 (11732068_a_at) / Fold change /veh CAPN14 (11732068_a_at) / RFU TMCC2 (11721928_a_at) / Fold change /veh TMCC2 (11721928_a_at) / RFU IRGQ (11745062_a_at) / Fold change /veh IRGQ (11745062_a_at) / RFU FAM174B (11720279_a_at) / Fold change /veh FAM174B (11720279_a_at) / RFU TMPRSS4 (11748680_a_at) / Fold change /veh TMPRSS4 (11748680_a_at) / RFU FAM212B (11763350_a_at) / Fold change /veh FAM212B (11763350_a_at) / RFU PLEKHG5 (11743358_a_at) / Fold change /veh PLEKHG5 (11743358_a_at) / RFU ZSCAN30 (11745921_a_at) / Fold change /veh ZSCAN30 (11745921_a_at) / RFU CMKLR1 (11741424_a_at) / Fold change /veh CMKLR1 (11741424_a_at) / RFU LOC101060620 /// MAPK8IP1 (11723275_at) / Fold change /veh LOC101060620 /// MAPK8IP1 (11723275_at) / RFU SPTSSB (11747773_x_at) / Fold change /veh SPTSSB (11747773_x_at) / RFU PRSS12 (11739890_at) / Fold change /veh PRSS12 (11739890_at) / RFU BIN1 (11741810_x_at) / Fold change /veh BIN1 (11741810_x_at) / RFU WNT11 (11732464_a_at) / Fold change /veh WNT11 (11732464_a_at) / RFU C10orf10 (11716521_a_at) / Fold change /veh C10orf10 (11716521_a_at) / RFU C5orf56 (11738089_at) / Fold change /veh C5orf56 (11738089_at) / RFU CYB561 (11721691_x_at) / Fold change /veh CYB561 (11721691_x_at) / RFU ANKRD19P (11752326_a_at) / Fold change /veh ANKRD19P (11752326_a_at) / RFU OR2T12 /// OR2T33 /// OR2T8 (11738714_s_at) / Fold change /veh OR2T12 /// OR2T33 /// OR2T8 (11738714_s_at) / RFU VCAN (11748164_a_at) / Fold change /veh VCAN (11748164_a_at) / RFU JSRP1 (11732532_at) / Fold change /veh JSRP1 (11732532_at) / RFU KRTAP10-11 (11738290_x_at) / Fold change /veh KRTAP10-11 (11738290_x_at) / RFU MYO3A (11730013_a_at) / Fold change /veh MYO3A (11730013_a_at) / RFU EBF3 (11725865_a_at) / Fold change /veh EBF3 (11725865_a_at) / RFU CAMK2N1 (11719241_x_at) / Fold change /veh CAMK2N1 (11719241_x_at) / RFU C5orf56 (11738088_a_at) / Fold change /veh C5orf56 (11738088_a_at) / RFU OLFML3 (11715873_a_at) / Fold change /veh OLFML3 (11715873_a_at) / RFU LOC100653217 /// NTM (11731650_a_at) / Fold change /veh LOC100653217 /// NTM (11731650_a_at) / RFU MAPK11 (11762145_a_at) / Fold change /veh MAPK11 (11762145_a_at) / RFU FIZ1 (11724087_x_at) / Fold change /veh FIZ1 (11724087_x_at) / RFU OASL (11726364_x_at) / Fold change /veh OASL (11726364_x_at) / RFU SOX15 (11748057_x_at) / Fold change /veh SOX15 (11748057_x_at) / RFU CD79A (11719716_a_at) / Fold change /veh CD79A (11719716_a_at) / RFU HIST1H1D (11736915_at) / Fold change /veh HIST1H1D (11736915_at) / RFU CASKIN2 (11723855_a_at) / Fold change /veh CASKIN2 (11723855_a_at) / RFU LOC730098 (11760151_x_at) / Fold change /veh LOC730098 (11760151_x_at) / RFU OR4N2 (11742367_at) / Fold change /veh OR4N2 (11742367_at) / RFU PRRT2 (11749266_a_at) / Fold change /veh PRRT2 (11749266_a_at) / RFU SNX32 (11753110_a_at) / Fold change /veh SNX32 (11753110_a_at) / RFU CDHR5 (11726645_a_at) / Fold change /veh CDHR5 (11726645_a_at) / RFU RCAN1 (11760418_a_at) / Fold change /veh RCAN1 (11760418_a_at) / RFU FAM167A (11723789_a_at) / Fold change /veh FAM167A (11723789_a_at) / RFU FAM26E (11764081_at) / Fold change /veh FAM26E (11764081_at) / RFU ISYNA1 (11749810_s_at) / Fold change /veh ISYNA1 (11749810_s_at) / RFU ACY1 (11761880_at) / Fold change /veh ACY1 (11761880_at) / RFU 11764098_at / Fold change /veh 11764098_at / RFU SAMD14 (11745864_x_at) / Fold change /veh SAMD14 (11745864_x_at) / RFU NPB (11741838_a_at) / Fold change /veh NPB (11741838_a_at) / RFU TMPRSS6 (11731388_a_at) / Fold change /veh TMPRSS6 (11731388_a_at) / RFU KRTAP10-2 (11738614_at) / Fold change /veh KRTAP10-2 (11738614_at) / RFU ARHGAP8 /// PRR5-ARHGAP8 (11727945_x_at) / Fold change /veh ARHGAP8 /// PRR5-ARHGAP8 (11727945_x_at) / RFU KRTAP5-7 /// NADSYN1 (11734609_at) / Fold change /veh KRTAP5-7 /// NADSYN1 (11734609_at) / RFU RASL12 (11751679_a_at) / Fold change /veh RASL12 (11751679_a_at) / RFU CDKN2B (11736163_a_at) / Fold change /veh CDKN2B (11736163_a_at) / RFU PRF1 (11729649_at) / Fold change /veh PRF1 (11729649_at) / RFU, ZNF638 /// ZNF638-IT1 / Fold change vs veh, ZNF638 /// ZNF638-IT1 / RFU, PANK3 / Fold change vs veh, PANK3 / RFU, SH3YL1 / Fold change vs veh, SH3YL1 / RFU, ZEB2 / Fold change vs veh, ZEB2 / RFU, NRIP1 / Fold change vs veh, NRIP1 / RFU, PTTG1IP / Fold change vs veh, PTTG1IP / RFU, CAPN2 / Fold change vs veh, CAPN2 / RFU, MED14 / Fold change vs veh, MED14 / RFU, SNORA58 / Fold change vs veh, SNORA58 / RFU, C1orf63 / Fold change vs veh, C1orf63 / RFU, LRRFIP1 / Fold change vs veh, LRRFIP1 / RFU, NDUFAF7 / Fold change vs veh, NDUFAF7 / RFU, SLC12A2 / Fold change vs veh, SLC12A2 / RFU, IBTK / Fold change vs veh, IBTK / RFU, ESF1 / Fold change vs veh, ESF1 / Fold change vs veh, TMEM50B / RFU, TAOK1 / Fold change vs veh, TAOK1 / RFU, ACBD3 / Fold change vs veh, ACBD3 / RFU, TMA16 / Fold change vs veh, TMA16 / RFU, RWDD3 / Fold change vs veh, RWDD3 / RFU, BCAT1 / Fold change vs veh, BCAT1 / RFU, EDEM3 / Fold change vs veh, EDEM3 / RFU, TMEM33 / Fold change vs veh, TMEM33 / RFU, WDR75 / Fold change vs veh, WDR75 / RFU, AHCTF1 / Fold change vs veh, AHCTF1 / RFU, TFRC / Fold change vs veh, TFRC / RFU, ZDHHC17 / Fold change vs veh, ZDHHC17 / RFU, NOM1 / Fold change vs veh, NOM1 / RFU, ARL8B / Fold change vs veh, ARL8B / RFU, ZBTB11 / Fold change vs veh, ZBTB11 / RFU, TAMM41 / Fold change vs veh, TAMM41 / RFU, KIAA1704 /// LOC100996395 / Fold change vs veh, KIAA1704 /// LOC100996395 / RFU, ING1 / Fold change vs veh, ING1 / RFU, TRMT61B / Fold change vs veh, TRMT61B / RFU, FUBP3 / Fold change vs veh, FUBP3 / RFU, TP53 / Fold change vs veh, TP53 / RFU, TNKS2 / Fold change vs veh, TNKS2 / RFU, ZFP14 / Fold change vs veh, ZFP14 / RFU, ACTR2 / Fold change vs veh, ACTR2 / RFU, PPP3R1 / Fold change vs veh, PPP3R1 / RFU, PIK3R1 / Fold change vs veh, PIK3R1 / RFU, HNRNPA1 / Fold change vs veh, HNRNPA1 / RFU, RNF170 / Fold change vs veh, RNF170 / RFU, ZNF28 / Fold change vs veh, ZNF28 / RFU, RNGTT / Fold change vs veh, RNGTT / RFU, OGT / Fold change vs veh, OGT / RFU, BRD1 / Fold change vs veh, BRD1 / RFU, MARS / Fold change vs veh, MARS / RFU, ZNF655 / Fold change vs veh, ZNF655 / RFU, FAHD1 / Fold change vs veh, FAHD1 / RFU, BDP1 / Fold change vs veh, BDP1 / RFU, LRRCC1 / Fold change vs veh, LRRCC1 / RFU, ARID1A / Fold change vs veh, ARID1A / RFU, ZNF146 / Fold change vs veh, ZNF146 / RFU, ZNF330 / Fold change vs veh, ZNF330 / RFU, GPN3 / Fold change vs veh, GPN3 / RFU, C9orf123 / Fold change vs veh, C9orf123 / RFU, N4BP2L2 / Fold change vs veh, N4BP2L2 / RFU, ARFIP1 / Fold change vs veh, ARFIP1 / RFU, FAM179B / Fold change vs veh, FAM179B / RFU, BCL10 / Fold change vs veh, BCL10 / RFU, UHRF1BP1L / Fold change vs veh, UHRF1BP1L / RFU, BET1 / Fold change vs veh, BET1 / RFU, CNOT2 / Fold change vs veh, CNOT2 / RFU, ZNF268 / Fold change vs veh, ZNF268 / Fold change vs veh, ZNF507 / RFU, DGCR2 / Fold change vs veh, DGCR2 / RFU, WDSUB1 / Fold change vs veh, WDSUB1 / Fold change vs veh, HSP90B1 /// MIR3652 / RFU, ADSS / Fold change vs veh, ADSS / RFU, GK / Fold change vs veh, GK / RFU, ZNF148 / Fold change vs veh, ZNF148 / RFU, TAF9 / Fold change vs veh, TAF9 / RFU, SLC1A5 / Fold change vs veh, SLC1A5 / RFU, SLMO2 / Fold change vs veh, SLMO2 / RFU, ABCC4 / Fold change vs veh, ABCC4 / RFU, LOC101060439 /// RAP1B / Fold change vs veh, LOC101060439 /// RAP1B / RFU, RFX7 / Fold change vs veh, RFX7 / RFU, GTPBP10 / Fold change vs veh, GTPBP10 / RFU, CNEP1R1 / Fold change vs veh, CNEP1R1 / RFU, BIVM-ERCC5 /// ERCC5 / Fold change vs veh, BIVM-ERCC5 /// ERCC5 / RFU, ILF3 / Fold change vs veh, ILF3 / RFU 11762660_at / Fold change /veh 11762660_at / RFU VCAN (11757783_s_at) / Fold change /veh VCAN (11757783_s_at) / RFU DDX43 (11728927_at) / Fold change /veh DDX43 (11728927_at) / RFU KRT8 (11758188_x_at) / Fold change /veh KRT8 (11758188_x_at) / RFU NKD1 (11759106_at) / Fold change /veh NKD1 (11759106_at) / RFU SRD5A1 (11742802_a_at) / Fold change /veh SRD5A1 (11742802_a_at) / RFU TPSAB1 /// TPSB2 (11721975_s_at) / Fold change /veh TPSAB1 /// TPSB2 (11721975_s_at) / RFU GSTM3 (11746129_a_at) / Fold change /veh GSTM3 (11746129_a_at) / RFU IL23R (11737362_x_at) / Fold change /veh IL23R (11737362_x_at) / RFU TMEM51 (11727254_a_at) / Fold change /veh TMEM51 (11727254_a_at) / RFU PIWIL2 (11732686_x_at) / Fold change /veh PIWIL2 (11732686_x_at) / RFU ORM1 (11744905_x_at) / Fold change /veh ORM1 (11744905_x_at) / RFU CCDC152 (11743942_at) / Fold change /veh CCDC152 (11743942_at) / RFU ECM1 (11717891_a_at) / Fold change /veh ECM1 (11717891_a_at) / RFU IL23R (11748794_a_at) / Fold change /veh IL23R (11748794_a_at) / RFU TNFAIP8L3 (11732012_x_at) / Fold change /veh TNFAIP8L3 (11732012_x_at) / RFU MBOAT4 (11741988_at) / Fold change /veh MBOAT4 (11741988_at) / RFU 11764193_at / Fold change /veh 11764193_at / RFU TMEM53 (11763286_at) / Fold change /veh TMEM53 (11763286_at) / RFU MAGEB2 (11727129_at) / Fold change /veh MAGEB2 (11727129_at) / RFU TMEM200A (11744735_a_at) / Fold change /veh TMEM200A (11744735_a_at) / RFU CCDC152 (11751479_a_at) / Fold change /veh CCDC152 (11751479_a_at) / RFU FAM211A (11726209_a_at) / Fold change /veh FAM211A (11726209_a_at) / RFU RGS16 (11746705_a_at) / Fold change /veh RGS16 (11746705_a_at) / RFU VCAN (11755009_s_at) / Fold change /veh VCAN (11755009_s_at) / RFU RHOB (11743442_s_at) / Fold change /veh RHOB (11743442_s_at) / RFU RGS16 (11720943_a_at) / Fold change /veh RGS16 (11720943_a_at) / RFU RGS16 (11720944_at) / Fold change /veh RGS16 (11720944_at) / RFU, VPS4B / Fold change vs veh, VPS4B / RFU, CREB1 / Fold change vs veh, CREB1 / RFU, DNAJC13 / Fold change vs veh, DNAJC13 / RFU, GNAQ / Fold change vs veh, GNAQ / RFU, CDK5R1 / Fold change vs veh, CDK5R1 / RFU, ZRANB3 / Fold change vs veh, ZRANB3 / RFU, CUL4A / Fold change vs veh, CUL4A / RFU, CCNY / Fold change vs veh, CCNY / RFU, UFL1 / Fold change vs veh, UFL1 / RFU, COG3 / Fold change vs veh, COG3 / RFU, DIAPH2 / Fold change vs veh, DIAPH2 / RFU, SKA2 / Fold change vs veh, SKA2 / RFU, AFF3 / Fold change vs veh, AFF3 / RFU, LMF1 / Fold change vs veh, LMF1 / RFU, IPO11 / Fold change vs veh, IPO11 / RFU, DFFB / Fold change vs veh, DFFB / RFU, FOXP1 / Fold change vs veh, FOXP1 / RFU, CARD8 / Fold change vs veh, CARD8 / RFU, STRN3 / Fold change vs veh, STRN3 / RFU, ADK / Fold change vs veh, ADK / RFU, RASSF2 / Fold change vs veh, RASSF2 / RFU, WIPF1 / Fold change vs veh, WIPF1 / RFU, LARP1B / Fold change vs veh, LARP1B / RFU, RASA1 / Fold change vs veh, RASA1 / RFU, RB1 / Fold change vs veh, RB1 / RFU, PPFIA1 / Fold change vs veh, PPFIA1 / RFU, MAT2A / Fold change vs veh, MAT2A / RFU, CCT5 / Fold change vs veh, CCT5 / RFU, WDR92 / Fold change vs veh, WDR92 / RFU, CUX1 / Fold change vs veh, CUX1 / RFU, TTC7A / Fold change vs veh, TTC7A / RFU, TMEM135 / Fold change vs veh, TMEM135 / RFU, DEPTOR / Fold change vs veh, DEPTOR / RFU, CPM / Fold change vs veh, CPM / RFU, DNAJB6 / Fold change vs veh, DNAJB6 / RFU, CACNA2D3 / Fold change vs veh, CACNA2D3 / RFU, DTX4 / Fold change vs veh, DTX4 / RFU, TFCP2 / Fold change vs veh, TFCP2 / RFU, GMCL1 /// GMCL1P1 / Fold change vs veh, GMCL1 /// GMCL1P1 / RFU, AEBP2 / Fold change vs veh, AEBP2 / RFU, SNHG1 /// SNORD22 /// SNORD25 /// SNORD26 /// SNORD27 /// SNORD28 /// SNORD29 /// SNORD31 / Fold change vs veh, SNHG1 /// SNORD22 /// SNORD25 /// SNORD26 /// SNORD27 /// SNORD28 /// SNORD29 /// SNORD31 / Fold change (Aza/veh), C12orf56 (ProbeSet 11735607_a_at) / Fold change (ACY-1035/veh), C12orf56 (ProbeSet 11735607_a_at) / Fold change (Aza/veh), FGFR1OP (ProbeSet 11751329_s_at) / Fold change (ACY-1035/veh), FGFR1OP (ProbeSet 11751329_s_at) / Fold change (Aza/veh), VPS36 (ProbeSet 11739960_a_at) / Fold change (ACY-1035/veh), VPS36 (ProbeSet 11739960_a_at) / RFU SYPL1 (11715823_x_at) / Fold change /veh SYPL1 (11715823_x_at) / RFU IGFBP7 (11715501_s_at) / Fold change /veh IGFBP7 (11715501_s_at) / RFU REEP3 (11722064_at) / Fold change /veh REEP3 (11722064_at) / RFU IGLL1 (11728026_x_at) / Fold change /veh IGLL1 (11728026_x_at): dose or concentration left out as unconfirmed. The conditions noted are these: ProbeSet 11727827_x_at; LIST B.

Regarding `Nc1ncn([C@@H]2O[C@H](CO)[C@@H](O)[C@H]2O)c(=O)n1` [azacitidine], the “Fold change vs veh, NDUFAF7” value is 0.98.
